Converted amounts (≈) assume the structure as drawn.
Assays:
[1] = test system: Cryptococcus neoformans; assay: Antifungal activity against Cryptococcus neoformans assessed as reduction in fungal growth incubated for 24 hrs by broth microdilution method; type: functional
[2] = test system: Candida albicans; assay: Antifungal activity against Candida albicans MTCC 227 by disc diffusion method; type: functional, organism-based
[3] = test system: Aspergillus niger; assay: Antifungal activity against Aspergillus niger MTCC 282 by disc diffusion method; type: functional, organism-based
[4] = test system: Aspergillus fumigatus; assay: Antifungal activity against Aspergillus fumigatus assessed as reduction in fungal growth; type: functional
[5] = test system: Trichophyton rubrum; assay: Antifungal activity against Trichophyton rubrum assessed as diameter of zone inhibition; type: functional
[6] = test system: Candida tropicalis; assay: Antifungal activity against Candida tropicalis assessed as zone of inhibition by disc diffusion method; type: functional
[7] = test system: Aspergillus niger; assay: Antifungal activity against Aspergillus niger assessed as zone of inhibition by disc diffusion method; type: functional
[8] = test system: Candida albicans; assay: Antifungal activity against Candida albicans assessed as diameter of zone inhibition; type: functional
[9] = test system: Aspergillus niger; assay: Antifungal activity against Aspergillus niger assessed as diameter of zone inhibition; type: functional
[10] = test system: Geotrichum candidum; assay: Antifungal activity against Geotrichum candidum; type: functional
[11] = test system: Candida albicans; assay: Antifungal activity against Candida albicans; type: functional
[12] = test system: Syncephalastrum racemosum; assay: Antifungal activity against Syncephalastrum racemosum; type: functional
[13] = test system: Candida albicans; assay: Antifungal activity against Candida albicans ATCC 10231 assessed as inhibition of mycelial growth relative to control; type: functional
[14] = test system: Phomopsis; assay: Antifungal activity against Phomopsis assessed as reduction in fungal growth at 50 ug/ml relative to control; type: functional
[15] = test system: Botryosphaeria dothidea; assay: Antifungal activity against Botryosphaeria dothidea assessed as reduction in fungal growth at 50 ug/ml relative to control; type: functional
[16] = test system: Botrytis cinerea; assay: Antifungal activity against Botrytis cinerea assessed as reduction in fungal growth at 50 ug/ml relative to control; type: functional
[17] = test system: Nakaseomyces glabratus; assay: Antifungal activity against Candida glabrata MTCC 3019 assessed as inhibition of fungal growth incubated for 24 hrs; type: functional
[18] = test system: Candida parapsilosis; assay: Antifungal activity against Candida parapsilosis MTCC 1744 assessed as inhibition of fungal growth incubated for 24 hrs; type: functional; details: Lodderomyces parapsilosis
[19] = test system: Candida albicans; assay: Antifungal activity against Candida albicans MTCC 3018 assessed as inhibition of fungal growth incubated for 24 hrs; type: functional
[20] = test system: Candida albicans; assay: Antifungal activity against Candida albicans MTCC 4748 assessed as inhibition of fungal growth incubated for 24 hrs; type: functional
[21] = test system: Candida albicans; assay: Antifungal activity against Candida albicans MTCC 7315 assessed as inhibition of fungal growth incubated for 24 hrs; type: functional
[22] = test system: Candida albicans; assay: Antifungal activity against Candida albicans MTCC 3017 assessed as inhibition of fungal growth incubated for 24 hrs; type: functional
[23] = test system: Candida albicans; assay: Antifungal activity against Candida albicans MTCC 1637 assessed as inhibition of fungal growth incubated for 24 hrs; type: functional
[24] = test system: Pichia kudriavzevii; assay: Antifungal activity against Pichia kudriavzevii MTCC 3020 assessed as inhibition of fungal growth incubated for 24 hrs; type: functional
[25] = test system: Candida albicans; assay: Antifungal activity against Candida albicans MTCC 227 assessed as inhibition of fungal growth incubated for 24 hrs; type: functional
[26] = test system: Syncephalastrum racemosum; assay: Antifungal activity against Syncephalastrum racemosum assessed as zone of inhibition; type: functional
[27] = test system: Aspergillus fumigatus; assay: Antifungal activity against Aspergillus fumigatus assessed as zone of inhibition; type: functional
[28] = test system: Candida albicans; assay: Antifungal activity against Candida albicans assessed as zone of inhibition; type: functional
[29] = test system: Aspergillus niger; assay: Antifungal activity against Aspergillus niger assessed as zone of inhibition; type: functional
[30] = test system: Candida albicans; assay: Antifungal activity against Candida albicans ATCC 10231 assessed as zone of inhibition incubated for 24 hrs by disc diffusion method; type: functional
[31] = test system: Candida albicans; assay: Antifungal activity against azole-resistant Candida albicans ATCC 18804 assessed as fungal growth inhibition incubated for 24 hrs by CLSI protocol based broth microdilution method; type: functional
[32] = test system: Talaromyces purpureogenus; assay: Antifungal activity against Talaromyces purpureogenus assessed as zone of inhibition by disc diffusion method; type: functional
[33] = test system: Candida albicans; assay: Antifungal activity against Candida albicans NRRL-Y477 assessed as zone of inhibition by disc diffusion method; type: functional

Cc1nc(NC(=O)c2cc(C(F)(F)F)cc(C(F)(F)F)c2)c2c(C(F)(F)F)cc(-c3ccccc3)nc2n1
MIC [1]: 12.5 µg/mL (≈ 23 µM)

CC(=O)N1N=C(C2=C(C)NC(=O)NC2c2ccc(F)cc2)OC1c1ccccc1 (stereo not drawn)
EC50 [2]: 0.15 µg/mL (≈ 0.38 µM)
EC50 [3]: 0.15 µg/mL (≈ 0.38 µM)

O=C1N/C(=N/c2nn(-c3ccccc3)nc2C(=O)Nc2cnccn2)S/C1=C\c1ccccc1
MIC [4]: < 214 µg/mL

Cc1c(-c2ccc(Br)cc2)nnc(O)c1Br
inhibition zone (IZ) [5]: 14 mm

COc1ccc(C2C3C(C)=NN(c4ccccc4)C3N=C3SCCN32)cc1 (stereo not drawn)
inhibition zone (IZ) [6]: 26 mm
inhibition zone (IZ) [7]: 24 mm

Cc1cccc(-c2nc3ccccc3nc2N2CCN(C)CC2)c1
inhibition zone (IZ) [8]: 14 mm
inhibition zone (IZ) [9]: 16 mm

Oc1nnc(-c2ccccc2Cl)cc1Br
inhibition zone (IZ) [5]: 14 mm

CCOC(=O)c1sc2nc3c(nc2c1N)c(C)nn3-c1ccccc1
MIC [10]: 5 µg/mL (≈ 14.1 µM)
MIC [11]: 5 µg/mL (≈ 14.1 µM)
MIC [12]: 5 µg/mL (≈ 14.1 µM)

O=C(Nc1ccccc1)c1nnn2c1[nH]c(=O)c1ccccc12
inhibition (INH) [13]: 40%

Cc1nc(Oc2ccc(C(=O)Nc3ccc(OC(F)(F)F)c(Cl)c3)cc2)cc(C(F)(F)F)n1
inhibition at 50 µg/mL [14]: 92%
inhibition at 50 µg/mL [15]: 98.5%
inhibition at 50 µg/mL [16]: 98.5%

O=[N+]([O-])c1ccc(-c2nnc3c4ccc(C(F)(F)F)nc4nc(-c4ccco4)n23)cc1
MIC [17]: 3.9 µg/mL (≈ 9.15 µM)
MIC [18]: 3.9 µg/mL (≈ 9.15 µM)
MIC [19]: 3.9 µg/mL (≈ 9.15 µM)
MIC [20]: 3.9 µg/mL (≈ 9.15 µM)
MIC [21]: 3.9 µg/mL (≈ 9.15 µM)
MIC [22]: 3.9 µg/mL (≈ 9.15 µM)
MIC [23]: 3.9 µg/mL (≈ 9.15 µM)
MIC [24]: 3.9 µg/mL (≈ 9.15 µM)
MIC [25]: 3.9 µg/mL (≈ 9.15 µM)

Oc1nnc(-c2ccc(Cl)cc2)cc1Br
inhibition zone (IZ) [5]: 14 mm

CCc1nnc2c(Nc3ccc(C4=NN(C(N)=O)C(c5ccc(Cl)cc5)C4)cc3)nc3ccccc3n12 (stereo not drawn)
inhibition zone (IZ) [26]: 21 mm
inhibition zone (IZ) [27]: 22 mm

CC(=O)N(C(C)=O)N1C(=O)CC(=O)N(c2nnc(-c3cc([N+](=O)[O-])cc([N+](=O)[O-])c3)s2)C1=S
inhibition zone (IZ) [28]: 23 mm
inhibition zone (IZ) [29]: 21 mm

CCc1ccccc1/N=N/c1c(N)nc2c(/N=N/c3ccccc3CC)cnn2c1N
inhibition zone (IZ) [30]: 21 mm

C=CCNN1CCN(c2nc3ccccc3nc2-c2cccc(C)c2)CC1
inhibition zone (IZ) [8]: 13 mm
inhibition zone (IZ) [9]: 14 mm

C/C=C/N1CCN(c2nc3ccccc3nc2-c2cccc(C)c2)CC1
inhibition zone (IZ) [8]: 14 mm
inhibition zone (IZ) [9]: 15 mm

O=c1ccc(=O)n(-c2nc(-c3cc4c(ccc5ccccc54)oc3=O)cs2)[nH]1
MIC [31]: 0.9 µg/mL (≈ 2.31 µM)

CC(=O)N1N=C(C2=C(C)NC(=O)NC2c2ccc(F)cc2)OC1c1ccc(Cl)cc1 (stereo not drawn)
EC50 [2]: 0.2 µg/mL (≈ 0.466 µM)
EC50 [3]: 0.2 µg/mL (≈ 0.466 µM)

CCOc1ccccc1/N=N/c1c(N)nc2c(/N=N/c3ccccc3OCC)cnn2c1N
inhibition zone (IZ) [30]: 21 mm

CCc1nnc2c(Nc3ccc(C(=O)/C=C/c4ccc(OC)cc4)cc3)nc3ccccc3n12
inhibition zone (IZ) [27]: 21 mm

CCOC(=O)c1c(C)nc2sc3c(-n4nc(C)cc4C)ncnc3c2c1-c1cccs1
inhibition zone (IZ) [32]: 25 mm
inhibition zone (IZ) [7]: 24 mm

Fc1ccc(-c2nnc3c4ccc(C(F)(F)F)nc4nc(-c4ccco4)n23)c(Cl)c1
MIC [17]: 3.9 µg/mL (≈ 8.99 µM)
MIC [18]: 3.9 µg/mL (≈ 8.99 µM)
MIC [19]: 3.9 µg/mL (≈ 8.99 µM)
MIC [20]: 3.9 µg/mL (≈ 8.99 µM)
MIC [21]: 3.9 µg/mL (≈ 8.99 µM)
MIC [22]: 3.9 µg/mL (≈ 8.99 µM)
MIC [23]: 3.9 µg/mL (≈ 8.99 µM)
MIC [24]: 3.9 µg/mL (≈ 8.99 µM)
MIC [25]: 3.9 µg/mL (≈ 8.99 µM)

O=c1ccc(=O)n(-c2nc(-c3ccc([N+](=O)[O-])cc3)cs2)[nH]1
MIC [31]: 3.9 µg/mL (≈ 12.3 µM)

O=C1NC(=O)C(=C2NN=C(Nc3nnc(-c4cc([N+](=O)[O-])cc([N+](=O)[O-])c4)s3)S2)C(=O)N1
inhibition zone (IZ) [28]: 25 mm
inhibition zone (IZ) [29]: 23 mm

CN(C)c1ccc(-c2cc(Br)c(O)nn2)cc1
inhibition zone (IZ) [5]: 15 mm

O=C1CS/C(=N\c2nn(-c3ccccc3)nc2C(=O)Nc2cnccn2)N1
MIC [4]: < 209 µg/mL

CC1=NN(c2ccccc2)C2N=C3SCCN3C(c3ccc(O)cc3)C12 (stereo not drawn)
inhibition zone (IZ) [6]: 26 mm
inhibition zone (IZ) [7]: 24 mm

Cc1nc(NC(=O)c2cc3ccccc3o2)c2c(C(F)(F)F)cc(-c3ccccc3)nc2n1
MIC [1]: 12.5 µg/mL (≈ 27.9 µM)

CCc1nnc2c(Nc3ccc(C4=NN(c5ccccc5)C(c5ccc(Cl)cc5)C4)cc3)nc3ccccc3n12 (stereo not drawn)
inhibition zone (IZ) [27]: 21 mm

Cc1nc(Oc2ccc(C(=O)Nc3ccc(OC(F)(F)F)cc3)cc2)cc(C(F)(F)F)n1
inhibition at 50 µg/mL [14]: 89%
inhibition at 50 µg/mL [15]: 93.1%
inhibition at 50 µg/mL [16]: 96.7%

CC(=O)N1N=C(C2=C(C)NC(=O)NC2c2ccc(F)cc2)OC1c1cccc([N+](=O)[O-])c1 (stereo not drawn)
EC50 [2]: 0.16 µg/mL (≈ 0.364 µM)
EC50 [3]: 0.16 µg/mL (≈ 0.364 µM)

Fc1ccc(-c2nnc3c4ccc(C(F)(F)F)nc4nc(-c4ccccc4)n23)c(Cl)c1
MIC [17]: 3.9 µg/mL (≈ 8.79 µM)
MIC [18]: 3.9 µg/mL (≈ 8.79 µM)
MIC [19]: 3.9 µg/mL (≈ 8.79 µM)
MIC [20]: 3.9 µg/mL (≈ 8.79 µM)
MIC [21]: 3.9 µg/mL (≈ 8.79 µM)
MIC [22]: 3.9 µg/mL (≈ 8.79 µM)
MIC [23]: 3.9 µg/mL (≈ 8.79 µM)
MIC [24]: 3.9 µg/mL (≈ 8.79 µM)
MIC [25]: 3.9 µg/mL (≈ 8.79 µM)

CCOC(=O)c1c(C)nc2sc3c(=O)[nH]cnc3c2c1-c1cccs1
inhibition zone (IZ) [32]: 25 mm
inhibition zone (IZ) [33]: 25 mm

CC1=NN(c2ccccc2)C2N=C3SCCN3C(c3ccc(Cl)cc3)C12 (stereo not drawn)
inhibition zone (IZ) [6]: 26 mm
inhibition zone (IZ) [7]: 24 mm

CCc1ccccc1/N=N/c1c(N)nn2c(-c3ccc(Cl)cc3)cc(-c3ccccc3)nc12
inhibition zone (IZ) [30]: 19 mm

CCc1nnc2c(Nc3ccc(C4=NNC(c5ccc(Cl)cc5)C4)cc3)nc3ccccc3n12 (stereo not drawn)
inhibition zone (IZ) [27]: 22 mm

COC1=CC(=O)C[C@@H](C)[C@]12Oc1c(Cl)c(OC)cc(OC)c1C2=O [GRISEOFULVIN]
inhibition zone (IZ) [6]: 25 mm
MIC [11]: 500 µg/mL (≈ 1420 µM)
inhibition zone (IZ) [7]: 22 mm

Clc1ccc(COC(Cn2ccnc2)c2ccc(Cl)cc2Cl)c(Cl)c1 (stereo not drawn) [MICONAZOLE]
MIC [17]: 0.39 µg/mL (≈ 0.937 µM)
MIC [18]: 0.39 µg/mL (≈ 0.937 µM)
MIC [19]: 0.39 µg/mL (≈ 0.937 µM)
MIC [20]: 0.39 µg/mL (≈ 0.937 µM)
MIC [21]: 0.39 µg/mL (≈ 0.937 µM)
MIC [22]: 0.39 µg/mL (≈ 0.937 µM)
MIC [23]: 0.39 µg/mL (≈ 0.937 µM)
MIC [24]: 0.39 µg/mL (≈ 0.937 µM)
MIC [25]: 0.39 µg/mL (≈ 0.937 µM)

Cc1cc(C)nc(Nc2ccccc2)n1 [PYRIMETHANIL]
inhibition at 50 µg/mL [14]: 85.1%
inhibition at 50 µg/mL [15]: 84.4%
inhibition at 50 µg/mL [16]: 82.8%

Clc1ccc(C(Cn2ccnc2)OCc2csc3c(Cl)cccc23)c(Cl)c1 (stereo not drawn) [SERTACONAZOLE]
inhibition zone (IZ) [8]: 20 mm
inhibition zone (IZ) [9]: 24 mm

— ChEMBL document CHEMBL6103565, “Current strategies in design and synthesis of antifungals hybrid and chimeric diazine derivatives” (Bioorg Med Chem, 2025)
